This note sets out measurements from ChEMBL document CHEMBL3714729, “Heterocyclic compounds for the inhibition of pask” (2012).

pIC50: −log10 of the molar value. A value given as a limit tells only on which side of the number the result lay.

Experiment [1] addresses T1, PAS domain-containing serine/threonine-protein kinase (Homo sapiens, UniProt Q96RG2). Description: Inhibition of N-terminal GST-tagged human recombinant PASK kinase domain (879 to 1323 residues) expressed in insect cells using MBP protein substrate incubated for 120 mins in presence of [33P]ATP by scintillation counting based radiochemical assay.
The target of experiment [2] is T1, PAS domain-containing serine/threonine-protein kinase. Briefly: Inhibition of human recombinant PASK using Ulight-peptide substrate incubated for 2 hrs by TR-FRET assay.
Experiment [3] deals with Casein kinase II subunit alpha' (Homo sapiens, UniProt P19784). Briefly: Inhibition of GST-tagged full-length purified human CK2a2 using RRRDDDSDDD substrate incubated for 120 mins in presence of [33P]ATP by scintillation counting based biochemical assay.
Chain of Casein kinase II subunit alpha' (P19784 whole entry): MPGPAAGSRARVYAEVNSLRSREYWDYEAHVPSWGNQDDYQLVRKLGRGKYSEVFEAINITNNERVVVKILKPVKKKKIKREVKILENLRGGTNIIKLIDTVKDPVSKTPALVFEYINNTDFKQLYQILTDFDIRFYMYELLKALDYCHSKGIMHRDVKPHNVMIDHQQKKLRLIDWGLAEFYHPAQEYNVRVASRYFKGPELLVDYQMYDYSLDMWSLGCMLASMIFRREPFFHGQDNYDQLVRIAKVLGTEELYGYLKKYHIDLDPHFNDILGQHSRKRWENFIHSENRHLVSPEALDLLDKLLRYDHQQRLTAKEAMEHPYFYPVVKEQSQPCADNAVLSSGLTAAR

T1 sequence (Q96RG2 whole entry, the tested form may be a part): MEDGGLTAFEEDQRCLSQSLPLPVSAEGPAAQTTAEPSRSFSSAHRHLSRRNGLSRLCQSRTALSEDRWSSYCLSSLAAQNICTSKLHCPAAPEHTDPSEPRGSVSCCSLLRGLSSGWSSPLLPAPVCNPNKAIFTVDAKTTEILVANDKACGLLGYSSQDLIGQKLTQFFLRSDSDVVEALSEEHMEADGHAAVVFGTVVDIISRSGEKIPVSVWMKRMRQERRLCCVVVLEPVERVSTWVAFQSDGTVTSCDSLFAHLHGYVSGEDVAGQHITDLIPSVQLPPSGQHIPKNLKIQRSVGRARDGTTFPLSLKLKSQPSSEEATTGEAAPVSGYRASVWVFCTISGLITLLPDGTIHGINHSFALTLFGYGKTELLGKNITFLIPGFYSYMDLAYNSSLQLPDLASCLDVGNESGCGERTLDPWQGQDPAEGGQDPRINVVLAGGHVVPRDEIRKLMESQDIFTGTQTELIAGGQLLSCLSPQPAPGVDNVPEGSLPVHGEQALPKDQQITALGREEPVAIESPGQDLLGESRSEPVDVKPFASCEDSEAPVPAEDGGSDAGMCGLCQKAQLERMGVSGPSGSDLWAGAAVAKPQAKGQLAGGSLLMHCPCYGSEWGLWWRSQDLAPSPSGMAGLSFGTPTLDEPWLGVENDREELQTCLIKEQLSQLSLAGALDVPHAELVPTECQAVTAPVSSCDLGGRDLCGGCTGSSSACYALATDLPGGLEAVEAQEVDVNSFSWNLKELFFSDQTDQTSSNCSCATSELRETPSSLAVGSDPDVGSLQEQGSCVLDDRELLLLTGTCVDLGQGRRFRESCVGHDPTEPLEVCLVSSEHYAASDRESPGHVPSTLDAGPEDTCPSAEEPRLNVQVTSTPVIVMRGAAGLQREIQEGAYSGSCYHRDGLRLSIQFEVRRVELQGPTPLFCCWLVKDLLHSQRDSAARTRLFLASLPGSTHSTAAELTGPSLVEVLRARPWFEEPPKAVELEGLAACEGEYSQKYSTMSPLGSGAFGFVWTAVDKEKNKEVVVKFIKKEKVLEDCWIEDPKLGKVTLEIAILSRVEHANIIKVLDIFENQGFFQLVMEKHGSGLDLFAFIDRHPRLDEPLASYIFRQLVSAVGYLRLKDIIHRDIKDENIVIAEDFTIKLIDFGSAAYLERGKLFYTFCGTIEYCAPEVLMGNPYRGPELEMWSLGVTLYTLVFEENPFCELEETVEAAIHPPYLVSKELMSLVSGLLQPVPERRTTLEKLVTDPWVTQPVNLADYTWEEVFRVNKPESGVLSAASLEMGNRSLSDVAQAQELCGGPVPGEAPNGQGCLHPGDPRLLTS

What is called pIC50 is the negative decadic logarithm of the IC50, by convention in mol/L. For `O=c1cc(-c2ccc(Cl)cc2)[nH]c2c(-c3cccnc3)c(O)nn12`, the negative logarithm of the IC50 (pIC50) was at least 5.00 in experiment [1], at least 5.00 in experiment [2] and at most 5.00 in experiment [3].
`O=c1cc(-c2ccc3c(c2)OCCO3)[nH]c2c(-c3ccc(N4CCCC4)nc3)cnn12`: the pIC50 in experiment [1], in experiment [2] and in experiment [3] was at least 5.00 each time.
Turning to `O=c1cc(-c2ccc(Cl)c(Cl)c2)[nH]c2c(-c3ccccn3)cnn12`, the negative-log IC50 (pIC50) in experiment [1], in experiment [2] and in experiment [3] was at least 5.00 each time.
Regarding `O=c1cc(-c2ccc3c(c2)OC(F)(F)O3)[nH]c2c(-c3ccccn3)cnn12`, the negative logarithm of the IC50 (pIC50) in experiment [1], in experiment [2] and in experiment [3] was at least 5.00 throughout.
In the case of `O=c1cc(-c2ccc(F)cc2)[nH]c2c(-c3ccccn3)cnn12`, the pIC50 in experiment [1], in experiment [2] and in experiment [3] was at least 5.00 throughout.
Consider `O=c1cc(-c2ccc3occc3c2)[nH]c2c(-c3ccccc3)c(O)nn12`, for which the pIC50 in experiment [1], in experiment [2] and in experiment [3] was at least 5.00 in each case.
`CCc1nn2c(=O)cc(-c3ccc4c(c3)OCO4)[nH]c2c1-c1ccccn1`: the pIC50 in experiment [1], in experiment [2] and in experiment [3] was at least 5.00 throughout.
In the case of `Nc1nn2c(=O)cc(-c3ccc(Cl)cc3F)[nH]c2c1-c1ccccn1`, the negative logarithm of the IC50 (pIC50) in experiment [1], in experiment [2] and in experiment [3] was at least 5.00 in each case.
On to `NC(=O)c1cnn2c(=O)cc(-c3ccc4c(c3)OCCO4)[nH]c12`, for which the negative-log IC50 (pIC50) in experiment [1], in experiment [2] and in experiment [3] was at least 5.00 in each case.
Turning to `Nc1nn2c(=O)cc(-c3ccc(Cl)cc3)[nH]c2c1-c1ccccn1`, the pIC50 in experiment [1], in experiment [2] and in experiment [3] was at least 5.00 throughout.
`Nc1nn2c(=O)cc(-c3ccc4c(c3)OCCO4)[nH]c2c1-c1ccccn1`: the pIC50 in experiment [1], in experiment [2] and in experiment [3] was at least 5.00 throughout.
`CCCNC(=O)c1cnn2c(=O)cc(-c3ccc4c(c3)OCCO4)[nH]c12`: the pIC50 in experiment [1], in experiment [2] and in experiment [3] was at least 5.00 each time.
Take `Nc1nn2c(=O)cc(-c3ccc(F)cc3)[nH]c2c1-c1ccccn1`: the pIC50 in experiment [1], in experiment [2] and in experiment [3] was at least 5.00 each time.
As for `O=C(NCc1ccccc1)c1cnn2c(=O)cc(-c3ccc(Cl)cc3)[nH]c12`, the pIC50 in experiment [1], in experiment [2] and in experiment [3] was at least 5.00 in each case.
With `CCCNC(=O)c1c(N)nn2c(=O)cc(-c3ccc4c(cnn4C)c3)[nH]c12`, the pIC50 in experiment [1], in experiment [2] and in experiment [3] was at least 5.00 throughout.
In the case of `Nc1nn2c(=O)cc(-c3ccc4[nH]nnc4c3)[nH]c2c1-c1ccccc1`, the negative logarithm of the IC50 (pIC50) in experiment [1], in experiment [2] and in experiment [3] was at least 5.00 in each case.
For the compound `COc1ccccc1-c1cc(=O)n2ncc(-c3ccccn3)c2[nH]1`, the pIC50 in experiment [1], in experiment [2] and in experiment [3] was at least 5.00 throughout.
Turning to `O=c1cc(-c2ccc(F)cc2)[nH]c2c(-c3ccccn3)c(O)nn12`, the pIC50 in experiment [1] is at least 5.00; in experiment [2], at least 5.00; in experiment [3] it was at most 5.00.
With `CC(=O)Nc1nn2c(=O)cc(-c3ccc4c(c3)OCO4)[nH]c2c1-c1ccccn1`, the pIC50 in experiment [1], in experiment [2] and in experiment [3] was at least 5.00 in each case.
Take `CCNc1nn2c(=O)cc(-c3ccc4c(c3)OCO4)[nH]c2c1-c1ccccn1`: the pIC50 in experiment [1], in experiment [2] and in experiment [3] was at least 5.00 throughout.
For the compound `Nc1nn2c(=O)cc(-c3ccc4c(c3)OCO4)[nH]c2c1-c1ccccn1`, the pIC50 in experiment [1], in experiment [2] and in experiment [3] was at least 5.00 each time.
Consider `CCCNC(=O)c1c(N)nn2c(=O)cc(-c3ccc4[nH]ncc4c3)[nH]c12`, for which the pIC50 in experiment [1], in experiment [2] and in experiment [3] was at least 5.00 throughout.
As to `O=c1cc(-c2ccc3c(c2)CCO3)[nH]c2c(-c3cccnc3)c(O)nn12`, the negative-log IC50 (pIC50) in experiment [1], in experiment [2] and in experiment [3] was at least 5.00 throughout.
Regarding `Nc1nn2c(=O)cc(-c3ccc4[nH]ncc4c3)[nH]c2c1-c1ccccn1`, the negative-log IC50 (pIC50) in experiment [1], in experiment [2] and in experiment [3] was at least 5.00 each time.
Turning to `Nc1nn2c(=O)cc(-c3ccc4c(c3)OCCO4)[nH]c2c1-c1ccccc1`, the negative logarithm of the IC50 (pIC50) in experiment [1], in experiment [2] and in experiment [3] was at least 5.00 each time.
Take `O=c1cc(-c2ccc3[nH]nnc3c2)[nH]c2c(-c3ccccn3)c(O)nn12`: the negative-log IC50 (pIC50) in experiment [1], in experiment [2] and in experiment [3] was at least 5.00 each time.
With `O=c1cc(-c2ccc3c(c2)OCCO3)[nH]c2c(-c3ccccc3)c(C(F)(F)F)nn12`, the negative logarithm of the IC50 (pIC50) in experiment [1], in experiment [2] and in experiment [3] was at least 5.00 throughout.
For the compound `O=c1cc(-c2ccc3occc3c2)[nH]c2c(-c3cccnc3)c(O)nn12`, the pIC50 in experiment [1], in experiment [2] and in experiment [3] was at least 5.00 throughout.
On to `O=c1cc(-c2ccc3c(c2)OCO3)[nH]c2c(Cc3ccccc3)cnn12`, for which the negative-log IC50 (pIC50) in experiment [1], in experiment [2] and in experiment [3] was at least 5.00 throughout.
As to `O=c1cc(-c2ccc3[nH]ncc3c2)[nH]c2c(-c3ccccn3)cnn12`, the pIC50 in experiment [1], in experiment [2] and in experiment [3] was at least 5.00 throughout.
Consider `COc1ccc(-c2cc(=O)n3nc(O)c(-c4ccccn4)c3[nH]2)c(OC)c1`, for which the values for the negative logarithm of the IC50 (pIC50) in experiment [1], in experiment [2] and in experiment [3] were at least 5.00, at least 5.00 and at most 5.00, respectively.
In the case of `O=c1cc(-c2ccc3c(c2)CCO3)[nH]c2c(-c3ccccn3)c(O)nn12`, the negative logarithm of the IC50 (pIC50) in experiment [1] is at least 5.00; in experiment [2], at least 5.00; in experiment [3] it was at most 5.00.
For `O=c1cc(-c2ccc3c(c2)OCO3)[nH]c2c(-c3ncccc3F)cnn12`, the pIC50 in experiment [1], in experiment [2] and in experiment [3] was at least 5.00 each time.
With `O=c1cc(-c2ccc3occc3c2)[nH]c2c(-c3ccccn3)c(O)nn12`, the negative logarithm of the IC50 (pIC50) in experiment [1], in experiment [2] and in experiment [3] was at least 5.00 in each case.
In the case of `COc1ccc2c(c1)CCc1c-2[nH]c2c(-c3ccccn3)cnn2c1=O`, the pIC50 in experiment [1], in experiment [2] and in experiment [3] was at least 5.00 throughout.
With `O=c1cc(-c2ccc(Cl)cc2)[nH]c2c(-c3ccccn3)c(O)nn12`, the pIC50 was at least 5.00 in experiment [1], at least 5.00 in experiment [2] and at most 5.00 in experiment [3].
Regarding `Nc1nn2c(=O)cc(-c3ccc4[nH]nnc4c3)[nH]c2c1-c1ccccn1`, the pIC50 in experiment [1], in experiment [2] and in experiment [3] was at least 5.00 in each case.
Turning to `CN(Cc1ccccc1)C(=O)c1cnn2c(=O)cc(-c3ccc4c(c3)OCCO4)[nH]c12`, the negative logarithm of the IC50 (pIC50) in experiment [1], in experiment [2] and in experiment [3] was at least 5.00 each time.
As to `Nc1nn2c(=O)cc(-c3ccc(Cl)cc3)[nH]c2c1-c1ccccc1`, the pIC50 in experiment [1], in experiment [2] and in experiment [3] was at least 5.00 each time.
